Test: Lethal dose upon intraperitoneal administration.
Type: ADME
Conditions: ip

## O=C(NC1=CC(=O)[C@]2(CO)O[C@@H]2C1=O)c1ccccc1O
  LD50: 50 mg/kg

— ChEMBL document CHEMBL1130639, “Synthesis of anti-rheumatic agent epoxyquinomicin B” (Bioorg Med Chem Lett, 1998)
